Data: patent publication US20230131899A1, “INHIBITORS OF MICROBIALLY INDUCED AMYLOID” (Axial Therapeutics, Inc., priority 2020, published 2023)
Where two headings read alike, the source gives them in different places.

Key:
[1] = molecular target: T1, E. coli CsgA (Escherichia coli, UniProt P28307); experiment: In vitro ThioflavinT assay of CsgA aggregation (CsgA ThT Assay); type: biochemical; settings: for remaining activity at 25 µM: compound 25 μM; for remaining activity at 100 µM: compound 100 μM
T1 construct: made in house; host or cells: E. coli NEB 3016 slyD::kan, pET11d
T1 sequence (P28307 23-151): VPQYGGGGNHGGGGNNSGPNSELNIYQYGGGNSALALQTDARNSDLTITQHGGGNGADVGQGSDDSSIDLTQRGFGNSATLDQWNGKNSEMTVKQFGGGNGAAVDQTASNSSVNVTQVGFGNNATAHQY
Outline: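 Purified C-terminal His-tagged CsgA, monomerised by desalting and 30-kDa filtration, at 2-20 μM with 20-40 μM ThT in 50 mM potassium phosphate pH 7.3, 1% DMSO, compounds 3.125-200 uM; room temperature, fluorescence (ex 438/em 495 nm) read every 15 min. Background-subtracted signal expressed as percent inhibition versus vehicle at 6-6.5 or 8-9 h, or as percent control AUC.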

[2] = tested on: CsgA gene expression (csgBAC promoter-GFP reporter) in E. coli UTI89; experiment: In vitro live cell fluorescent reporter assay of CsgA transcription (Reporter Assay); type: cell-based; settings: Escherichia coli
Outline: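 Compounds at 0.14–100 μM (1% DMSO final) incubated 20 h at 27 °C in YESCA broth with UTI89 carrying a single-copy GFP reporter under the csgBAC intergenic promoter region, inoculum OD600 0.003. Fluorescence normalized to vehicle wells gave IC50 and 50%-of-vehicle concentration; OD600 reduction >10% flagged growth impact.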

[3] = read-out: CsgA ThT Assay (10 μM CsgA) % Control AUC at 1005 minutes, 25 μM (activity range), CsgA 10 μM, black plates, 1005 minutes, class symbol
[4] = read-out: CsgA ThT Assay (10 μM CsgA) % Control AUC at 1005 minutes, 25 μM, mean AUC as % of DMSO control, CsgA 10 μM, black plates, 1005 minutes
[5] = read-out: CsgA ThT Assay (10 μM CsgA) % Control AUC at 1005 minutes, 100 μM (activity range), CsgA 10 μM, black plates, 1005 minutes, class symbol
[6] = read-out: CsgA ThT Assay (10 μM CsgA) % Control AUC at 1005 minutes, 100 μM, mean AUC as % of DMSO control, CsgA 10 μM, black plates, 1005 minutes
[7] = read-out: Reporter Assay Abs IC50 (activity range), median Abs IC50 in the CsgA reporter assay, class symbol
[8] = read-out: Reporter Assay Abs IC50 (μM), median Abs IC50 in the CsgA reporter assay, N/A = maximum expression reduction is <50% of control
[9] = read-out: CsgA ThT Assay (2 μM CsgA) % Control Bmax 25 μM, activity range, class symbol, CsgA 2 μM, white plates
[10] = read-out: CsgA ThT Assay (2 μM CsgA) % Control Bmax 25 μM, mean Bmax as percentage of DMSO control, CsgA 2 μM, white plates
[11] = read-out: CsgA ThT Assay (2 μM CsgA) % Control Bmax 100 μM, activity range, class symbol, CsgA 2 μM, white plates
[12] = read-out: CsgA ThT Assay (2 μM CsgA) % Control Bmax 100 μM, mean Bmax as percentage of DMSO control, CsgA 2 μM, white plates
[13] = read-out: Reporter Assay Abs IC50, activity range, class symbol

For `CCc1c(Cc2cccc3ccccc23)c(-c2cccc(C(F)(F)F)c2)c2n(c1=O)C(C(=O)O)CN(CCCCO)S2(=O)=O` (stereo not drawn) [Compound 113, 7-ethyl-2-(4-hydroxybutyl)-8-(naphthalen-1-ylmethyl)-6-oxo-9-(3-(trifluoromethyl)phenyl)-3,4-dihydro-2H,6H-pyrido[1,2-e][1,2,5]thiadiazine-4-carboxylic acid 1,1-dioxide], the remaining activity at 25 µM [1, 3] was 31 to 60%, the remaining activity at 25 µM [1, 4] was 41% and the remaining activity at 100 µM [1, 5] was 11 to 31%. The remaining activity at 100 µM [1, 6] was 24%, the IC50 [2, 7] was 4.6 to 10 µM and the IC50 [2, 8] was 4.6 µM.

`Nc1c(Cc2cccc3ccccc23)c(-c2cccc(C(F)(F)F)c2)c2n(c1=O)C(C(=O)O)CN(CCCCO)S2(=O)=O` (stereo not drawn) [Compound 099, 7-amino-2-(4-hydroxybutyl)-8-(naphthalen-1-ylmethyl)-6-oxo-9-(3-(trifluoromethyl)phenyl)-3,4-dihydro-2H,6H-pyrido[1,2-e][1,2,5]thiadiazine-4-carboxylic acid 1,1-dioxide] gave a remaining activity at 25 µM [1, 3] of 31 to 60%, a remaining activity at 25 µM [1, 4] of 56% and a remaining activity at 100 µM [1, 5] of 31 to 60%. For the same compound, the remaining activity at 100 µM [1, 6] was 44%, the IC50 [2, 7] was > 10 µM and the IC50 [2, 8] was 17.6 µM.

With `O=C(O)C1CN(Cc2ccccc2)c2c(-c3cccc(C(F)(F)F)c3)c(Cc3cccc4cccnc34)c(Cl)c(=O)n21` (stereo not drawn) [Compound 213, 1-benzyl-6-chloro-5-oxo-7-(quinolin-8-ylmethyl)-8-(3-(trifluoromethyl)phenyl)-1,2,3,5-tetrahydroimidazo[1,2-a]pyridine-3-carboxylic acid] the remaining activity at 25 µM [1, 9] was > 60%, the remaining activity at 25 µM [1, 10] was 72% and the remaining activity at 100 µM [1, 11] was 31 to 60%. The remaining activity at 100 µM [1, 12] was 44%, the IC50 [2, 8] was 9.1 µM and the IC50 [2, 13] was 4.6 to 10 µM.

For `CCc1c(Cc2cccc3ccccc23)c(-c2cccc(C(F)(F)F)c2)c2n(c1=O)C(C(=O)O)CN([C@H]1CC[C@@H](O)CC1)S2(=O)=O` (stereo partly drawn) [Compound 124, 7-ethyl-2-((1s,4s)-4-hydroxycyclohexyl)-8-(naphthalen-1-ylmethyl)-6-oxo-9-(3-(trifluoromethyl)phenyl)-3,4-dihydro-2H,6H-pyrido[1,2-e][1,2,5]thiadiazine-4-carboxylic acid 1,1-dioxide], the remaining activity at 25 µM [1, 3] was 31 to 60%, the remaining activity at 25 µM [1, 4] was 35% and the remaining activity at 100 µM [1, 5] was 11 to 31%. For the same compound, the remaining activity at 100 µM [1, 6] was 21%, the IC50 [2, 7] was 1.3 to 4.5 µM and the IC50 [2, 8] was 3.1 µM.

`O=C(O)CC1CS(=O)(=O)c2c(-c3cccc(C(F)(F)F)c3)c(Cc3cccc4ccccc34)cc(=O)n21` (stereo not drawn) [Compound 130, 2-(7-(naphthalen-1-ylmethyl)-1,1-dioxido-5-oxo-8-(3-(trifluoromethyl)phenyl)-2,3-dihydro-5H-thiazolo[3,2-a]pyridin-3-yl)acetic acid] gave a remaining activity at 25 µM [1, 3] of 31 to 60%, a remaining activity at 25 µM [1, 4] of 49% and a remaining activity at 100 µM [1, 5] of 11 to 31%. The remaining activity at 100 µM [1, 6] was 15%, the IC50 [2, 7] was > 10 µM and the IC50 [2, 8] was 14.8 µM.

`CCCCN1CC(C(=O)O)n2c(c(-c3cccc(C(F)(F)F)c3)c(Cc3cccc4ccccc34)c(N)c2=O)S1(=O)=O` (stereo not drawn) [Compound 093, 7-amino-2-butyl-8-(naphthalen-1-ylmethyl)-6-oxo-9-(3-(trifluoromethyl)phenyl)-3,4-dihydro-2H,6H-pyrido[1,2-e][1,2,5]thiadiazine-4-carboxylic acid 1,1-dioxide] showed a remaining activity at 25 µM [1, 3] of 31 to 60%, a remaining activity at 25 µM [1, 4] of 49% and a remaining activity at 100 µM [1, 5] of 31 to 60%. It also gave a remaining activity at 100 µM [1, 6] of 37%, an IC50 [2, 7] of 1.3 to 4.5 µM and an IC50 [2, 8] of 3.6 µM.

`O=C(O)C1CN(CCCCO)S(=O)(=O)c2c(-c3cccc(C(F)(F)F)c3)c(Cc3cccc4ccccc34)cc(=O)n21` (stereo not drawn) [Compound 085, 2-(4-hydroxybutyl)-8-(naphthalen-1-ylmethyl)-6-oxo-9-(3-(trifluoromethyl)phenyl)-3,4-dihydro-2H,6H-pyrido[1,2-e][1,2,5]thiadiazine-4-carboxylic acid 1,1-dioxide] showed a remaining activity at 25 µM [1, 3] of 31 to 60%, a remaining activity at 25 µM [1, 4] of 52% and a remaining activity at 100 µM [1, 5] of 11 to 31%. The remaining activity at 100 µM [1, 6] was 18%, the IC50 [2, 7] was > 10 µM and the IC50 [2, 8] was 15.3 µM.

Compound `CCCN1CC(C(=O)O)n2c(c(-c3cccc(C(F)(F)F)c3)c(Cc3cccc4ccccc34)c(OCCc3ccccc3)c2=O)S1(=O)=O` (stereo not drawn) [Compound 001, 8-(naphthalen-1-ylmethyl)-6-oxo-7-phenethoxy-2-propyl-9-(3-(trifluoromethyl)phenyl)-3,4-dihydro-2H,6H-pyrido[1,2-e][1,2,5]thiadiazine-4-carboxylic acid 1,1-dioxide] has a remaining activity at 25 µM [1, 3] of 31 to 60%, a remaining activity at 25 µM [1, 4] of 36% and a remaining activity at 100 µM [1, 5] of 31 to 60%. The remaining activity at 100 µM [1, 6] was 35%, the IC50 [2, 7] was 1.3 to 4.5 µM and the IC50 [2, 8] was 1.5 µM.

For `CN1CC(C(=O)O)n2c(c(-c3cccc(C(F)(F)F)c3)c(Cc3cccc4ccccc34)c(N3CCNCC3)c2=O)S1(=O)=O` (stereo not drawn) [Compound 102, 2-methyl-8-(naphthalen-1-ylmethyl)-6-oxo-7-(piperazin-1-yl)-9-(3-(trifluoromethyl)phenyl)-3,4-dihydro-2H,6H-pyrido[1,2-e][1,2,5]thiadiazine-4-carboxylic acid 1,1-dioxide], the remaining activity at 25 µM [1, 3] was > 60%, the remaining activity at 25 µM [1, 4] was 90% and the remaining activity at 100 µM [1, 5] was 31 to 60%. It also gave a remaining activity at 100 µM [1, 6] of 57%, an IC50 [2, 7] of 4.6 to 10 µM and an IC50 [2, 8] of 5.4 µM.

For `Nc1c(Cc2cccc3ccccc23)c(-c2cccc(C(F)(F)F)c2)c2n(c1=O)C(C(=O)O)CN(C[C@H](O)CO)S2(=O)=O` (stereo partly drawn) [Compound 095, 7-amino-2-((S)-2,3-dihydroxypropyl)-8-(naphthalen-1-ylmethyl)-6-oxo-9-(3-(trifluoromethyl)phenyl)-3,4-dihydro-2H,6H-pyrido[1,2-e][1,2,5]thiadiazine-4-carboxylic acid 1,1-dioxide], the remaining activity at 25 µM [1, 3] was > 60%, the remaining activity at 25 µM [1, 4] was 91% and the remaining activity at 100 µM [1, 5] was > 60%. For the same compound, the remaining activity at 100 µM [1, 6] was 70%, the IC50 [2, 7] was > 10 µM and the IC50 [2, 8] was 25.9 µM.

With `O=C(O)[C@@H]1CN(Cc2ccccc2)c2c(-c3cccc(C(F)(F)F)c3)c(Cc3cccc4ccccc34)c(Br)c(=O)n21` (single isomer, unassigned) [Compound 189] the remaining activity at 25 µM [1, 9] was 31 to 60%, the remaining activity at 25 µM [1, 10] was 58% and the remaining activity at 100 µM [1, 11] was 31 to 60%. It also gave a remaining activity at 100 µM [1, 12] of 49%, an IC50 [2, 8] of 1.4 µM and an IC50 [2, 13] of 1.3 to 4.5 µM.

In the case of `O=C(O)C1CSc2c(-c3cccc(C(F)(F)F)c3)c(C(F)(F)c3cccc4ccccc34)nc(=O)n21` (stereo not drawn) [Compound 063, 7-(difluoro(naphthalen-1-yl)methyl)-5-oxo-8-(3-(trifluoromethyl)phenyl)-2,3-dihydro-5H-thiazolo[3,2-c]pyrimidine-3-carboxylic acid], the remaining activity at 25 µM [1, 3] is reported as > 60%, the remaining activity at 25 µM [1, 4] is reported as 61% and the remaining activity at 100 µM [1, 5] is reported as 11 to 31%. The remaining activity at 100 µM [1, 6] was 21%, the IC50 [2, 7] was > 10 µM and the IC50 [2, 8] was 11.2 µM.

With `CCN1CC(C(=O)O)n2c(c(-c3cccc(C(F)(F)F)c3)c(Cc3cccc4ccccc34)c(N)c2=O)S1(=O)=O` (stereo not drawn) [Compound 092, 7-amino-2-ethyl-8-(naphthalen-1-ylmethyl)-6-oxo-9-(3-(trifluoromethyl)phenyl)-3,4-dihydro-2H,6H-pyrido[1,2-e][1,2,5]thiadiazine-4-carboxylic acid 1,1-dioxide] the remaining activity at 25 µM [1, 3] was > 60%, the remaining activity at 25 µM [1, 4] was 64% and the remaining activity at 100 µM [1, 5] was 31 to 60%. The remaining activity at 100 µM [1, 6] was 52%, the IC50 [2, 7] was > 10 µM and the IC50 [2, 8] was 18.8 µM.
